Test system: 454973-116-R2-J3-PDC spheroids, viability, % test/control
Test: Anticancer human tumor 454973-116-R2-J3-PDC patient-derived pancreatic carcinoma cell line growth inhibition [GQUAD]
Conditions: spheroids with HUVEC and MSC; for IC50: curve of first compound; for viability, T/C: stronger effect = lower value
Method in brief: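 Viability of tumor cells grown as complex spheroids with endothelial and stromal cells, exposed to drug combinations. Top concentration at or near clinical Cmax (else 10 microM), diluted in half-log increments.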

[1] = second compound 0.0316 µM, first compound 0.0316 µM
[2] = second compound 0.0316 µM, first compound 0.316 µM
[3] = second compound 0.1 µM, first compound 0.0316 µM
[4] = second compound 0.1 µM, first compound 0.316 µM
[5] = second compound 0.316 µM, first compound 0.0316 µM
[6] = second compound 0.316 µM, first compound 0.316 µM
[7] = second compound 1 µM, first compound 0.0316 µM
[8] = second compound 1 µM, first compound 0.316 µM
[9] = second compound 3.16 µM, first compound 0.0316 µM
[10] = second compound 3.16 µM, first compound 0.316 µM
[11] = second compound 10 µM, first compound 0.0316 µM
[12] = second compound 10 µM, first compound 0.316 µM
[13] = second compound 0.0316 µM, first compound 0.1 µM
[14] = second compound 0.0316 µM, first compound 1 µM
[15] = second compound 0.0316 µM, first compound 3.16 µM
[16] = second compound 0.0316 µM, first compound 10 µM
[17] = second compound 0.1 µM, first compound 0.1 µM
[18] = second compound 0.1 µM, first compound 1 µM
[19] = second compound 0.1 µM, first compound 3.16 µM
[20] = second compound 0.1 µM, first compound 10 µM
[21] = second compound 0.316 µM, first compound 0.1 µM
[22] = second compound 0.316 µM, first compound 1 µM
[23] = second compound 0.316 µM, first compound 3.16 µM
[24] = second compound 0.316 µM, first compound 10 µM
[25] = second compound 1 µM, first compound 0.1 µM
[26] = second compound 1 µM, first compound 1 µM
[27] = second compound 1 µM, first compound 3.16 µM
[28] = second compound 1 µM, first compound 10 µM
[29] = second compound 3.16 µM, first compound 0.1 µM
[30] = second compound 3.16 µM, first compound 1 µM
[31] = second compound 3.16 µM, first compound 3.16 µM
[32] = second compound 3.16 µM, first compound 10 µM
[33] = second compound 10 µM, first compound 0.1 µM
[34] = second compound 10 µM, first compound 1 µM
[35] = second compound 10 µM, first compound 3.16 µM
[36] = second compound 10 µM, first compound 10 µM
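Also: spheroids exposed to compounds for seven days.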
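For viability, T/C in this document: 100% = DMSO vehicle control viability.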

What does the source list for `CCc1c2c(nc3ccc(O)cc13)-c1cc3c(c(=O)n1C2)COC(=O)[C@]3(O)CC` + CN(C)c1ccc(Nc2c3ccc(NC(=O)CCN4CCCC4)cc3nc3cc(NC(=O)CCN4CCCC4)ccc23)cc1?
IC50 (second compound 0.0316 µM): 0.00167 µM; IC50 (second compound 0.1 µM): 0.00171 µM; IC50 (second compound 0.316 µM): 0.00152 µM; IC50 (second compound 1 µM): 0.00168 µM; IC50 (second compound 3.16 µM): 0.00163 µM; IC50 (second compound 10 µM): 0.00148 µM; viability, T/C (second compound 0.0316 µM, first compound 0.000999 µM): 67.9%; viability, T/C (second compound 0.0316 µM, first compound 0.00316 µM): 23.9%; viability, T/C (second compound 0.0316 µM, first compound 0.00999 µM): 21.6%; viability, T/C [1]: 15.2%; viability, T/C (second compound 0.0316 µM, first compound 0.0999 µM): 6.24%; viability, T/C [2]: 5.45%; viability, T/C (second compound 0.1 µM, first compound 0.000999 µM): 68.1%; viability, T/C (second compound 0.1 µM, first compound 0.00316 µM): 25.9%; viability, T/C (second compound 0.1 µM, first compound 0.00999 µM): 21.8%; viability, T/C [3]: 14.1%; viability, T/C (second compound 0.1 µM, first compound 0.0999 µM): 6.39%; viability, T/C [4]: 4.95%; viability, T/C (second compound 0.316 µM, first compound 0.000999 µM): 61.4%; viability, T/C (second compound 0.316 µM, first compound 0.00316 µM): 27.2%; viability, T/C (second compound 0.316 µM, first compound 0.00999 µM): 22.3%; viability, T/C [5]: 12.3%; viability, T/C (second compound 0.316 µM, first compound 0.0999 µM): 7.81%; viability, T/C [6]: 5.5%; viability, T/C (second compound 1 µM, first compound 0.000999 µM): 65.6%; viability, T/C (second compound 1 µM, first compound 0.00316 µM): 27.5%; viability, T/C (second compound 1 µM, first compound 0.00999 µM): 23.8%; viability, T/C [7]: 11.9%; viability, T/C (second compound 1 µM, first compound 0.0999 µM): 8.79%; viability, T/C [8]: 5.09%; viability, T/C (second compound 3.16 µM, first compound 0.000999 µM): 62.5%; viability, T/C (second compound 3.16 µM, first compound 0.00316 µM): 30.7%; viability, T/C (second compound 3.16 µM, first compound 0.00999 µM): 24.4%; viability, T/C [9]: 13.8%; viability, T/C (second compound 3.16 µM, first compound 0.0999 µM): 11.1%; viability, T/C [10]: 5.7%; viability, T/C (second compound 10 µM, first compound 0.000999 µM): 59.1%; viability, T/C (second compound 10 µM, first compound 0.00316 µM): 31.2%; viability, T/C (second compound 10 µM, first compound 0.00999 µM): 24.9%; viability, T/C [11]: 19.7%; viability, T/C (second compound 10 µM, first compound 0.0999 µM): 12.6%; viability, T/C [12]: 9.24%

For `COc1cc(C2c3cc4c(cc3C(OC3OC5COC(C)OC5C(O)C3O)C3COC(=O)C23)OCO4)cc(OC)c1O` (stereo unspecified) + CN(C)c1ccc(Nc2c3ccc(NC(=O)CCN4CCCC4)cc3nc3cc(NC(=O)CCN4CCCC4)ccc23)cc1, which IC50 (second compound 0.0316 µM) is on record?
Its IC50 is 1.24 µM.

And the IC50 (second compound 0.1 µM)?
Its IC50 is 1.27 µM.

And the IC50 (second compound 0.316 µM)?
Its IC50 is 1.09 µM.

What about the IC50 (second compound 1 µM) of the same compound?
The IC50 was 0.79 µM.

And the IC50 (second compound 3.16 µM)?
Its IC50 is 0.749 µM.

What about the IC50 (second compound 10 µM) of the same compound?
Its IC50 is 0.821 µM.

And the viability, T/C [1]?
The viability, T/C was 102%.

And the viability, T/C [13]?
Its viability, T/C is 95.6%.

And the viability, T/C [2]?
The viability, T/C was 87.9%.

And the viability, T/C [14]?
Its viability, T/C is 55.1%.

And the viability, T/C [15]?
The viability, T/C was 25.9%.

What about the viability, T/C [16] of the same compound?
Its viability, T/C is 15%.

And the viability, T/C [3]?
The viability, T/C was 106%.

And the viability, T/C [17]?
Its viability, T/C is 98.7%.

What about the viability, T/C [4] of the same compound?
Its viability, T/C is 89.1%.

And the viability, T/C [18]?
Its viability, T/C is 58.8%.

And the viability, T/C [19]?
The viability, T/C was 21.3%.

What about the viability, T/C [20] of the same compound?
The viability, T/C was 15.3%.

And the viability, T/C [5]?
Its viability, T/C is 97.3%.

And the viability, T/C [21]?
The viability, T/C was 98.7%.

What about the viability, T/C [6] of the same compound?
The viability, T/C was 78.8%.

What about the viability, T/C [22] of the same compound?
The viability, T/C was 51.8%.

And the viability, T/C [23]?
Its viability, T/C is 27.2%.

And the viability, T/C [24]?
The viability, T/C was 14.3%.

And the viability, T/C [7]?
Its viability, T/C is 105%.

And the viability, T/C [25]?
The viability, T/C was 89.1%.

What about the viability, T/C [8] of the same compound?
The viability, T/C was 78%.

And the viability, T/C [26]?
Its viability, T/C is 39.4%.

And the viability, T/C [27]?
The viability, T/C was 28.7%.

What about the viability, T/C [28] of the same compound?
Its viability, T/C is 15.7%.

What about the viability, T/C [9] of the same compound?
Its viability, T/C is 89.2%.

What about the viability, T/C [29] of the same compound?
The viability, T/C was 88.7%.

What about the viability, T/C [10] of the same compound?
The viability, T/C was 80.5%.

And the viability, T/C [30]?
The viability, T/C was 38.5%.

And the viability, T/C [31]?
Its viability, T/C is 31.6%.

What about the viability, T/C [32] of the same compound?
The viability, T/C was 16.3%.

And the viability, T/C [11]?
Its viability, T/C is 79.2%.

And the viability, T/C [33]?
The viability, T/C was 71.3%.

What about the viability, T/C [12] of the same compound?
The viability, T/C was 66.2%.

And the viability, T/C [34]?
The viability, T/C was 45.5%.

What about the viability, T/C [35] of the same compound?
The viability, T/C was 31.8%.

And the viability, T/C [36]?
Its viability, T/C is 20.9%.

Which results are given for `COc1cccc2c1C(=O)c1c(O)c3c(c(O)c1C2=O)CC(O)(C(=O)CO)CC3OC1CC(N)C(O)C(C)O1` (stereo unspecified) + CN(C)c1ccc(Nc2c3ccc(NC(=O)CCN4CCCC4)cc3nc3cc(NC(=O)CCN4CCCC4)ccc23)cc1?
IC50 (second compound 0.0316 µM): 0.236 µM; IC50 (second compound 0.1 µM): 0.242 µM; IC50 (second compound 0.316 µM): 0.255 µM; IC50 (second compound 1 µM): 0.253 µM; IC50 (second compound 3.16 µM): 0.405 µM; IC50 (second compound 10 µM): 0.41 µM; viability, T/C [1]: 104%; viability, T/C [13]: 72.1%; viability, T/C [2]: 33%; viability, T/C [14]: 33.2%; viability, T/C [15]: 20.6%; viability, T/C [16]: 1.74%; viability, T/C [3]: 98.9%; viability, T/C [17]: 71.8%; viability, T/C [4]: 36.3%; viability, T/C [18]: 31.1%; viability, T/C [19]: 20.8%; viability, T/C [20]: 2.34%; viability, T/C [5]: 100%; viability, T/C [21]: 69.8%; viability, T/C [6]: 33.4%; viability, T/C [22]: 40.5%; viability, T/C [23]: 22.4%; viability, T/C [24]: 2.19%; viability, T/C [7]: 97.5%; viability, T/C [25]: 63%; viability, T/C [8]: 36%; viability, T/C [26]: 42.2%; viability, T/C [27]: 29.4%; viability, T/C [28]: 3.18%; viability, T/C [9]: 88.3%; viability, T/C [29]: 72.6%; viability, T/C [10]: 40.2%; viability, T/C [30]: 44.2%; viability, T/C [31]: 27.9%; viability, T/C [32]: 2.27%; viability, T/C [11]: 79.1%; viability, T/C [33]: 61.1%; viability, T/C [12]: 44.1%; viability, T/C [34]: 47.2%; viability, T/C [35]: 31.1%; viability, T/C [36]: 3.01%
